Experimental data taken from patent publication US20230141101A1, “PDE4 INHIBITOR COMPOUND AND MEDICAL USE THEREOF” (Suzhou Longbotai Pharmaceuticals Co., Ltd., priority 2020, published 2023).

Experiments:
Assay type in all cases: biochemical
PDE4A1A = molecular target: T1, PDE4A1A (Homo sapiens, UniProt P27815); experiment: PDE4 inhibitory activity assay (FAM-cAMP enzymatic reaction), PDE4A1A
T1 construct: purchased BPS 60040
Procedure, shortened: (§1)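 Human PDE4A1A, PDE4B1 or PDE4D2 preincubated with compound 15 min at room temperature, then FAM-cAMP substrate added; reaction 30 min at room temperature before stop solution and further 60 min. Fluorescence read on multilabel counter; IC50 fitted from inhibition rates.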

PDE4B1 = molecular target: T2, PDE4B1 (Homo sapiens, UniProt Q07343); experiment: PDE4 inhibitory activity assay (FAM-cAMP enzymatic reaction), PDE4B1
T2 construct: purchased BPS 60041
T2 sequence (Q07343 whole entry): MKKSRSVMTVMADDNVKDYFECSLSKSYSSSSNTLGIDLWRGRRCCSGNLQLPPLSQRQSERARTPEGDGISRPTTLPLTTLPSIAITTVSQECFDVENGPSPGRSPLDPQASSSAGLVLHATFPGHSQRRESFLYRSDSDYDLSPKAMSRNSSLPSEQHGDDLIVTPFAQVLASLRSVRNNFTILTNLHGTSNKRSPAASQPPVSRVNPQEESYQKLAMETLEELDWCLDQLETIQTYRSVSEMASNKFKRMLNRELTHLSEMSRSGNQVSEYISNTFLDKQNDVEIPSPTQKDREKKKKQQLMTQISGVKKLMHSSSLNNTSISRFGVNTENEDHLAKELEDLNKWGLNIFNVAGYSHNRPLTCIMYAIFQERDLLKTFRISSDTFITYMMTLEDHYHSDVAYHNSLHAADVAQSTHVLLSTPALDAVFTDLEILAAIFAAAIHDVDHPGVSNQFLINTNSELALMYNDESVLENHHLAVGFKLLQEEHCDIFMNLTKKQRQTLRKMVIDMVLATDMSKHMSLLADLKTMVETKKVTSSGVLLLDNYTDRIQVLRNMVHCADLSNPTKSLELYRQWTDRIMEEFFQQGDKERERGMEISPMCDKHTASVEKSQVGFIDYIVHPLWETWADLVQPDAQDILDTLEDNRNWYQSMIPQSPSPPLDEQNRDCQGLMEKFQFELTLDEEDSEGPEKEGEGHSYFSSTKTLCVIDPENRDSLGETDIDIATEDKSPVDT
Procedure, shortened: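 Each isoform is incubated with test compound for 15 min at room temperature before FAM-cAMP substrate starts a 30-min reaction.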

PDE4D2 = PDE4D2 (Homo sapiens, UniProt Q08499); experiment: PDE4 inhibitory activity assay (FAM-cAMP enzymatic reaction), PDE4D2
Chain of PDE4D2 (Q08499 303-809): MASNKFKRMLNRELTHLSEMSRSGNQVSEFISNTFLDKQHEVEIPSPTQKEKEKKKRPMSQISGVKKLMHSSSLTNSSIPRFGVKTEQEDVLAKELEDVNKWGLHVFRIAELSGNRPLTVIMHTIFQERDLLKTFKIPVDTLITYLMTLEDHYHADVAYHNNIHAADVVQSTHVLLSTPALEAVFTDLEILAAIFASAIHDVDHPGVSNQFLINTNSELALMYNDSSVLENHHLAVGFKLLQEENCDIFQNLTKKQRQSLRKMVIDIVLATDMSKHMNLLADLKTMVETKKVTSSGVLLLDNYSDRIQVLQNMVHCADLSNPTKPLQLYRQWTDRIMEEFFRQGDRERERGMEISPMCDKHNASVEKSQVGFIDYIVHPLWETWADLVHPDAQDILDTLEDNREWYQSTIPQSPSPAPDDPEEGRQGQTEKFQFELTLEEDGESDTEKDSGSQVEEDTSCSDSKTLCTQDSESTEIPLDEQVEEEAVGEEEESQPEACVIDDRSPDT
Procedure, shortened: as §1

[1] = compared with Apremilast and Example 11 of WO2018036470 (WX011)

T1 sequence (P27815 1-647 isoform P27815-4): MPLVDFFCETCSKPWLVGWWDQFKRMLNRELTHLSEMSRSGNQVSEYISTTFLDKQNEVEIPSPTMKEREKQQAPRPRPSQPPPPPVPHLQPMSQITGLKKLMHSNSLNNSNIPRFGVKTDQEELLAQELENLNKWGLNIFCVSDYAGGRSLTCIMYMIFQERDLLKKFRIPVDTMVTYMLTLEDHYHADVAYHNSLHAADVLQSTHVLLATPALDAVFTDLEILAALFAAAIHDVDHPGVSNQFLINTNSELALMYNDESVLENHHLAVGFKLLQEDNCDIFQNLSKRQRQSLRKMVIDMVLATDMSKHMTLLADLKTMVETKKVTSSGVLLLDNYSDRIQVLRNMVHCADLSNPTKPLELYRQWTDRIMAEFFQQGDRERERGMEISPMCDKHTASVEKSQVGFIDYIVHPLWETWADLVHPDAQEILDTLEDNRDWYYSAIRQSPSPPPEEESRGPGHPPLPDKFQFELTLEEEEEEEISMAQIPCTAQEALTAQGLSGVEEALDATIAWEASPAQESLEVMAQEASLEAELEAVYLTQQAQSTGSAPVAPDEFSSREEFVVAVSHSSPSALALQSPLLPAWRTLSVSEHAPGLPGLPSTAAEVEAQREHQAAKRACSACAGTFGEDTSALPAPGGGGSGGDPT

Row | SMILES | PDE4 A1 inhibitory effect at 20 nM (PDE4A1A) | PDE4 B1 inhibitory effect at 20 nM (PDE4B1) | PDE4 D2 inhibitory effect at 20 nM (PDE4D2) | inhibitory activity against PDE4A1A compared with Apremilast and WX011 (PDE4A1A; [1]) | inhibitory activity against PDE4B1 compared with Apremilast and WX011 (PDE4B1; [1]) | inhibitory activity against PDE4D2 compared with Apremilast and WX011 (PDE4D2; [1])
1 | CCOc1nc([C@@H](CS(C)(=O)=O)n2c(=O)n(C)c3cc(-c4cc(C)ccc4F)ccc32)ccc1OC [Ex. 176, (S)-5-(2-fluoro-5-methylphenyl)-1-(1-(6-ethoxy-5-methoxypyridin-2-yl)-2-(methylsulfonyl)ethyl)-3-methyl-1H-benzo[d]imidazol-2(3H)-one] | + | + | + |  |  | 
2 | CCOc1nc([C@@H](CS(C)(=O)=O)n2c(=O)n(C)c3cc(-c4ccccc4F)cnc32)ccc1OC [Ex. 126, (S)-3-(1-(6-ethoxy-5-methoxypyridin-2-yl)-2-(methylsulfonyl)ethyl)-6-(2-fluorophenyl)-1-methyl-1H-imidazo[4,5-b]pyridin-2(3H)-one] | + | + | + |  |  | 
3 | CCOc1nc([C@@H](CS(C)(=O)=O)N2C(=O)c3csc([N+](=O)[O-])c3C2=O)ccc1OC [Ex. 222, (S)-5-(1-(6-ethoxy-5-methoxypyridin-2-yl)-2-(methylsulfonyl)ethyl)-1-nitro-4H-thieno[3,4-c]pyrrol-4,6(5H)-dione] | + | + | + |  |  | 
4 | CCOc1nc([C@@H](CS(C)(=O)=O)n2c(=O)n(CCOC)c3cc(-c4ccccn4)cnc32)ccc1OC [Ex. 125, (S)-3-(1-(6-ethoxy-5-methoxypyridin-2-yl)-2-(methylsulfonyl)ethyl)-1-(2-methoxyethyl)-6-(pyridin-2-yl)-1H-imidazo[4,5-b]pyridin-2(3H)-one] | + | + | + |  |  | 
5 | CCOc1nc([C@@H](CS(C)(=O)=O)N2Cc3cccc(NC(=O)CC)c3C2=O)ccc1OC [Ex. 219, (S)—N-(2-(1-(6-ethoxy-5-methoxypyridin-2-yl)-2-(methylsulfonyl)ethyl)-3-oxoisoindolin-4-yl)propionamide] | + | + | + |  |  | 
6 | CCOc1nc([C@@H](CS(C)(=O)=O)n2c(=O)[nH]c3cc(-c4ccc(F)cc4OC)cnc32)ccc1OC [Ex. 119, (S)-6-(4-fluoro-2-methoxyphenyl)-3-(1-(6-ethoxy-5-methoxypyridin-2-yl)-2-(methylsulfonyl)ethyl)-1H-imidazo[4,5-b]pyridin-2(3H)-one] | + | + | + |  |  | 
7 | CCOc1nc([C@@H](CS(C)(=O)=O)n2c(=O)[nH]c3cc(-c4ccc(OC)cc4F)ccc32)ccc1OC [Ex. 184, (S)-5-(2-fluoro-4-methoxyphenyl)-1-(1-(6-ethoxy-5-methoxypyridin-2-yl)-2-(methylsulfonyl)ethyl)-1H-benzo[d]imidazol-2(3H)-one] | + | + | + |  |  | 
8 | CCOc1nc([C@@H](CS(C)(=O)=O)n2c(=O)[nH]c3cc(-c4ccc(C)cc4C)ccc32)ccc1OC [Ex. 162, (S)-5-(2,4-dimethylphenyl)-1-(1-(6-ethoxy-5-methoxypyridin-2-yl)-2-(methylsulfonyl)ethyl)-1H-benzo[d]imidazol-2(3H)-one] | + | + | + |  |  | 

Further lines, with some results ahead:

Row | PDE4 A1 inhibitory effect at 20 nM (PDE4A1A) | PDE4 B1 inhibitory effect at 20 nM (PDE4B1) | PDE4 D2 inhibitory effect at 20 nM (PDE4D2) | SMILES | inhibitory activity against PDE4A1A compared with Apremilast and WX011 (PDE4A1A; [1]) | inhibitory activity against PDE4B1 compared with Apremilast and WX011 (PDE4B1; [1]) | inhibitory activity against PDE4D2 compared with Apremilast and WX011 (PDE4D2; [1])
9 | + | + | + | CCOc1nc([C@@H](CS(C)(=O)=O)n2c(=O)[nH]c3c(C)c(-c4cccc(C)c4F)cnc32)ccc1OC [Ex. 39, (S)-6-(2-fluoro-3-methylphenyl)-3-(1-(6-ethoxy-5-methoxypyridin-2-yl)-2-(methylsulfonyl)ethyl)-7-methyl-1H-imidazo[4,5-b]pyridin-2(3H)-one] |  |  | 
10 | − | − | − | CCOc1nc([C@H](CS(C)(=O)=O)n2c(=O)[nH]c3c(C)c(-c4ccccn4)cnc32)ccc1OC [Ex. 18, (R)-3-(1-(6-ethoxy-5-methoxypyridin-2-yl)-2-(methylsulfonyl)ethyl)-7-methyl-6-(pyridin-2-yl)-1H-imidazo[4,5-b]pyridin-2(3H)-one] |  |  | 
11 | − | − | − | CCOc1nc([C@H](CS(C)(=O)=O)n2c(=O)[nH]c3c(C)c(-c4cc(F)ccc4F)cnc32)ccc1OC [Ex. 30, (R)-6-(2,5-difluorophenyl)-3-(1-(6-ethoxy-5-methoxypyridin-2-yl)-2-(methylsulfonyl)ethyl)-7-methyl-1H-imidazo[4,5-b]pyridin-2(3H)-one] | significantly enhanced inhibitory activity | significantly enhanced inhibitory activity | significantly enhanced inhibitory activity
12 | + | + | + | CCOc1nc([C@@H](CS(C)(=O)=O)n2c(=O)[nH]c3c(C)c(-c4ccccc4C)cnc32)ccc1OC(F)F [Ex. 64, (S)-3-(1-(5-(difluoromethoxy)-6-ethoxypyridin-2-yl)-2-(methylsulfonyl)ethyl)-7-methyl-6-(o-methylphenyl)-1H-imidazo[4,5-b]pyridin-2(3H)-one] |  |  | 
13 | + | + | + | CCOc1nc([C@@H](CS(C)(=O)=O)n2c(=O)[nH]c3cc(-c4cc(F)ccc4C)cnc32)ccc1OC [Ex. 109, (S)-6-(5-fluoro-2-methylphenyl)-3-(1-(6-ethoxy-5-methoxypyridin-2-yl)-2-(methylsulfonyl)ethyl)-1H-imidazo[4,5-b]pyridin-2(3H)-one] |  |  | 
14 | + | + | + | CCOc1nc([C@@H](CS(C)(=O)=O)n2c(=O)[nH]c3cc(-c4cc(F)ccc4F)cnc32)ccc1OC [Ex. 92, (S)-6-(2,5-difluorophenyl)-3-(1-(6-ethoxy-5-methoxypyridin-2-yl)-2-(methylsulfonyl)ethyl)-1H-imidazo[4,5-b]pyridin-2(3H)-one] |  |  | 
15 | + | + | + | CCOc1nc([C@@H](CS(C)(=O)=O)n2c(=O)[nH]c3cc(-c4ccc(C)cc4F)cnc32)ccc1OC [Ex. 115] |  |  | 
16 | + | + | + | CCOc1nc([C@@H](CS(C)(=O)=O)n2c(=O)[nH]c3cc(-c4ccc(F)cc4F)cnc32)ccc1OC [Ex. 94, (S)-6-(2,4-difluorophenyl)-3-(1-(6-ethoxy-5-methoxypyridin-2-yl)-2-(methylsulfonyl)ethyl)-1H-imidazo[4,5-b]pyridin-2(3H)-one] |  |  | 
17 | + | + | + | CCOc1nc([C@@H](CS(C)(=O)=O)n2c(=O)n(C)c3c(C)c(-c4ccccc4)cnc32)ccc1OC(F)F [Ex. 66, (S)-3-(1-(5-(difluoromethoxy)-6-ethoxypyridin-2-yl)-2-(methylsulfonyl)ethyl)-1,7-dimethyl-6-phenyl-1H-imidazo[4,5-b]pyridin-2(3H)-one] |  |  | 
